Data: ChEMBL document CHEMBL6083291, “Discovery of Thiochroman Derivatives as Potent, Oral Selective Estrogen Receptor Degraders and Antagonists for the Treatment of Endocrine-Resistant Breast Cancer” (J Med Chem, 2024)

Experiments:
MCF7 [1] = experiment: Antiproliferative activity against human MCF7 cells harboring ER-alpha Y537S mutant assessed as inhibition of cell growth
MCF7 [2] = experiment: Antiproliferative activity against human MCF7 cells assessed as reduction in cell viability incubated for 6 days by CellTiter-Glo reagent based luminescence analysis; conditions: Homo sapiens, MCF7, 144 h
[3] = Estrogenic like activity in Sprague-Dawley rat assessed as increase in ratio of uterine wet weight to body weight at 0.1 mg/kg, po qd for 3 days relative to control; type: toxicity, organism-based; conditions: in vivo, 72 h, time 3 day
[4] = Toxicity in Sprague-Dawley rat assessed as thickened endometrium in uterus at 0.1 mg/kg, po qd for 3 days by Hematoxylin-Eosin staining based analysis; type: organism-based; conditions: in vivo, 72 h, time 3 day
[5] = Antagonist activity at ER-alpha Y537S mutant (unknown origin) expressed in human MCF7 cells assessed as inhibition of ER-alpha transcription by immunofluorescence assay
[6] = biological target: Voltage-gated inwardly rectifying potassium channel KCNH2 (Homo sapiens, UniProt Q12809); experiment: Inhibition of hERG expressed in CHO cells assessed as inhibition of channel current by automated Qpatch clamp analysis
Estrogen receptor = biological target: T1, Estrogen receptor (Homo sapiens, UniProt P03372); experiment: Induction of ER-alpha degradation in human MCF7 cells incubated for 24 hrs by In-Cell Western blot analysis; type: cell-based
T1 sequence (P03372 whole entry): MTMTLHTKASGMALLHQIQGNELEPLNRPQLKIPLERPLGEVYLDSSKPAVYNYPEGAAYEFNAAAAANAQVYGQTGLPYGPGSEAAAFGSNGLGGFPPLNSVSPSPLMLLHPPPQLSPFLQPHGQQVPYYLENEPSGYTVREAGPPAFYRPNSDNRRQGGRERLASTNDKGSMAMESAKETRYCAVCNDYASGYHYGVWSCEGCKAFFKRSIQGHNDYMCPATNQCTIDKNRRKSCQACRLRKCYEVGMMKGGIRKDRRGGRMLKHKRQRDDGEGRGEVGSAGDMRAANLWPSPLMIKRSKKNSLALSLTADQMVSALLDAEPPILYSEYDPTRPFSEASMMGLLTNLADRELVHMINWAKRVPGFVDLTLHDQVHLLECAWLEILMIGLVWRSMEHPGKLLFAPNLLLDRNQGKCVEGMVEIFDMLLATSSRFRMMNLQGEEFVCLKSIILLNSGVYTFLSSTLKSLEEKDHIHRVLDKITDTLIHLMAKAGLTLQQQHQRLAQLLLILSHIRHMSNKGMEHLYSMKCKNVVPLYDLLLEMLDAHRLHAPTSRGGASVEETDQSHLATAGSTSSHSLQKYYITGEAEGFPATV

[7] = Toxicity in Sprague-Dawley rat assessed as thickened endometrium in uterus at 60 mg/kg, po qd for 3 days by Hematoxylin-Eosin staining based analysis; type: organism-based; conditions: in vivo, 72 h, time 3 day
[8] = Estrogenic like activity in Sprague-Dawley rat assessed as increase in ratio of uterine wet weight to body weight at 60 mg/kg, po qd for 3 days relative to control; type: toxicity, organism-based; conditions: in vivo, 72 h, time 3 day

Voltage-gated inwardly rectifying potassium channel KCNH2, sequence (Q12809 whole entry): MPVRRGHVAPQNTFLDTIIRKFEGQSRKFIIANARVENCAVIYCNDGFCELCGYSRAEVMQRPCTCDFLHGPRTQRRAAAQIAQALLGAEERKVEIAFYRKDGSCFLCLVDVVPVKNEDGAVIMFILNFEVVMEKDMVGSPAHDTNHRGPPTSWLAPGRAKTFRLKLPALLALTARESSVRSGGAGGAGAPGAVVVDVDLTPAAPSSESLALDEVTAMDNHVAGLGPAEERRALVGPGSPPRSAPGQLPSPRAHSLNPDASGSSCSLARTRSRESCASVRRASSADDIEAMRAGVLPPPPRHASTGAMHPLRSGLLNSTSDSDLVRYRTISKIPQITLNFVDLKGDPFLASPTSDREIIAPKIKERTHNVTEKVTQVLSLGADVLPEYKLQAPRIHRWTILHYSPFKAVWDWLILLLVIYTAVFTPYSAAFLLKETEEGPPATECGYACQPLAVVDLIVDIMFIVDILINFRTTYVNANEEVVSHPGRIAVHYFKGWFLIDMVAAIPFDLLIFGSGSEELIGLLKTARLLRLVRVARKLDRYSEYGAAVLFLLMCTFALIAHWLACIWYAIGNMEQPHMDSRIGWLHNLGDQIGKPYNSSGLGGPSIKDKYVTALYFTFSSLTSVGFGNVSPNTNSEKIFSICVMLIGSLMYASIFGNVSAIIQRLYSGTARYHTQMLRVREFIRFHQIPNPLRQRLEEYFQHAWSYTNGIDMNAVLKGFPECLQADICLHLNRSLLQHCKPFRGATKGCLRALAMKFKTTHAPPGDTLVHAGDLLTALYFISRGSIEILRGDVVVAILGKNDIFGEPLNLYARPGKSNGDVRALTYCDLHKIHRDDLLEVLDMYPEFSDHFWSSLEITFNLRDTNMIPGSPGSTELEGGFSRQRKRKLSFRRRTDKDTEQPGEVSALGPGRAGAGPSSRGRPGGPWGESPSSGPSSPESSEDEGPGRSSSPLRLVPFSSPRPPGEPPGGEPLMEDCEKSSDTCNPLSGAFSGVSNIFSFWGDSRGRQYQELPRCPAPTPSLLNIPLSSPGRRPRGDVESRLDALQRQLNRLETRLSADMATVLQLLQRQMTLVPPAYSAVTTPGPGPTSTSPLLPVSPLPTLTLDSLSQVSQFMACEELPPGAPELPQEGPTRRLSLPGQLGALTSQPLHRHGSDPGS

Row | SMILES | IC50 (MCF7 [2]) | also measured
1 | C[C@@H]1Cc2c(ccc3[nH]ncc23)[C@@H](c2ccc(NC3CN(CCCF)C3)cn2)N1CC(F)(F)F [CAMIZESTRANT] | 0.68 nM | IC50 (MCF7 [1]): 21.2 nM
2 | C#C[C@]1(O)CC[C@H]2[C@@H]3CCc4cc(O)ccc4[C@H]3CC[C@@]21C [ETHINYL ESTRADIOL] |  | fold change (FC) [3]: 3; Activity [4]: Toxic
3 | O=C(O)c1ccc2c(c1)CCCC(c1ccc(Cl)cc1Cl)=C2c1ccc(O[C@H]2CCN(CCCF)C2)cc1 [AMCENESTRANT] | 3.9 nM | IC50 [5]: 57.5 nM
4 | COc1ccc([C@H]2COc3cc(O)ccc3[C@H]2c2ccc(OCCN3CC(CF)C3)cc2)c(F)c1 (racemic) | 0.87 nM | IC50 [6]: 3500 nM
5 | COc1cc(F)ccc1[C@H]1COc2cc(O)ccc2[C@H]1c1ccc(OCCN2CC(CF)C2)cc1 (racemic) | 0.56 nM | IC50 [6]: 4800 nM
6 | COc1cc(F)ccc1[C@H]1CSc2cc(C(=O)O)ccc2[C@H]1c1ccc(OCCN2CC(CF)C2)cc1 (racemic) | 1.7 nM | DC50 (Estrogen receptor): 9.6 nM
7 | COc1cc(F)ccc1[C@H]1CSc2c(ccc3[nH]ncc23)[C@H]1c1ccc(OCCN2CC(CF)C2)cc1 (racemic) | 7.4 nM | DC50 (Estrogen receptor): 6.3 nM
8 | COc1ccc([C@H]2COc3cc(O)ccc3[C@H]2c2ccc(OCCN3CC(CF)C3)cc2)cn1 (racemic) | 0.86 nM | 
9 | Oc1ccc2c(c1)OC[C@H](c1ccc(F)cc1F)[C@@H]2c1ccc(OCCN2CC(CF)C2)nc1 (racemic) | 1.7 nM | 
10 | Oc1ccc2c(c1)OC[C@H](c1ccc(F)cc1F)[C@@H]2c1ccc(OCCN2CC(CF)C2)cc1 (racemic) | 1.2 nM | 
11 | Oc1ccc2c(c1)OC[C@H](c1ccc(F)cc1F)[C@@H]2c1ccc(NC2CN(CCCF)C2)cc1 (racemic) | 3.1 nM | IC50 [6]: 3600 nM; DC50 (Estrogen receptor): 1 nM
12 | Oc1ccc2c(c1)OC[C@H](C1CCOCC1)[C@@H]2c1ccc(OCCN2CC(CF)C2)cc1 (racemic) | 1.6 nM | 
13 | Oc1ccc2c(c1)OC[C@H](c1ccc(F)cc1F)[C@@H]2c1ccc(O[C@H]2CCN(CCCF)C2)cc1 (racemic) | 7.7 nM | 
14 | COc1cc(F)ccc1[C@H]1CSc2cc(O)ccc2[C@H]1c1ccc(NC2CN(CCCF)C2)cc1 (racemic) | 0.9 nM | IC50 [6]: 22000 nM
15 | CC1(C)C[C@H](c2ccc(F)cc2F)[C@H](c2ccc(OCCN3CC(CF)C3)cc2)c2ccc(O)cc21 (racemic) | 8.8 nM | 
16 | Oc1ccc2c(c1)OC[C@H](c1ccc(F)cc1F)[C@@H]2c1ccc(NCCN2CC(CF)C2)cc1 (racemic) | 9.3 nM | DC50 (Estrogen receptor): 1.7 nM
17 | Oc1ccc2c(c1)SC[C@@H](c1cc(F)c(F)cc1F)[C@H]2c1ccc(OCCN2CC(CF)C2)cc1 | 714 nM | 
18 | Oc1ccc2c(c1)SC[C@H](c1cc(F)c(F)cc1F)[C@@H]2c1ccc(OCCN2CC(CF)C2)cc1 (racemic) | 0.4 nM | 
19 | Oc1ccc2c(c1)CCC[C@H](c1ccc(F)cc1F)[C@@H]2c1ccc(OCCN2CC(CF)C2)cc1 (racemic) | 19 nM | IC50 [6]: > 40000 nM; DC50 (Estrogen receptor): 22.7 nM
20 | COc1cc([C@@H]2c3ccc(O)cc3OC[C@@H]2c2ccc(F)cc2F)ccc1OCCN1CC(CF)C1 (racemic) | 4.8 nM | DC50 (Estrogen receptor): 4.5 nM
21 | Oc1ccc2c(c1)OC[C@H](c1ccc(F)cc1F)[C@@H]2c1ccc(OCCN2CC(CF)C2)cc1F (racemic) |  | IC50 [6]: 5400 nM
22 | CC/C(=C(\c1ccc(O)cc1)c1ccc(OCCN(C)C)cc1)c1ccccc1 [AFIMOXIFENE] |  | Activity [7]: Toxic; fold change (FC) [8]: 2
23 | Cc1cc(F)ccc1[C@H]1CSc2cc(O)ccc2[C@H]1c1ccc(OCCN2CC(CF)C2)cc1 (racemic) | 0.8 nM | 
